Earlier results, collected in patent publication US20240366823A1, “INSTANT ACTION AEROSOL FOR AIR SANITIZATION AND DISINFECTION” (Reckitt Benckiser LLC, priority 2021, published 2024).

Columns and labels:
[1] = at 20° C.
[2] = ethanol, water

vapor pressure [1]: 0.02 Pa
Compound: OCCOCCOCCO [TEG, Triethylene glycol]
solubility [2]: soluble in ethanol and miscible with water
